Results on one compound are retold here after PMC12560097, “An injectable hydrogel containing N-acetylglycine for the treatment of Gaucher disease” (RSC Advances, 2025).

Each structure is given as a SMILES string.

The target in this assay is T1, glucocerebrosidase (GCase; recombinant human-derived GBA/Glucosylceramidase, rGCase) (Homo sapiens, UniProt P04062).
T1 construct: gene GBA1; recombinant human-derived GBA/Glucosylceramidase (rGCase)
T1 sequence (P04062 40-536): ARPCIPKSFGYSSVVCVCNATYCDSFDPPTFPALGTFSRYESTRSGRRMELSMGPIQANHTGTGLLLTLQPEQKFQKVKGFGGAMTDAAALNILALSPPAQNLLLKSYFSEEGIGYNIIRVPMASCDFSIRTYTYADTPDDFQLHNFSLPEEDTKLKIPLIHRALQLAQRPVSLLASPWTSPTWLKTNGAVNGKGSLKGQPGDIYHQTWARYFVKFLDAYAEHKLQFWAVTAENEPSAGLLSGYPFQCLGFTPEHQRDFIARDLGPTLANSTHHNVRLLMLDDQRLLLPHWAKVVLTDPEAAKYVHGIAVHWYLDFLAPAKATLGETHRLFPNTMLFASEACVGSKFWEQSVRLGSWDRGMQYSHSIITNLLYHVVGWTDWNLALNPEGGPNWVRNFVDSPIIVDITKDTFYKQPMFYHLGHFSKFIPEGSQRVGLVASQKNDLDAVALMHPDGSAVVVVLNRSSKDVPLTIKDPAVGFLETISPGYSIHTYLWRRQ
The assay can be described thus: fluorogenic 4MU-β-Glc inhibition assay with recombinant GCase, pH […]. It is filed as biochemical.

A word on the IC50: it is the concentration needed to halve the response being measured. As to `CC(=O)NCC(=O)O` [NAG, N-acetylglycine], the IC50 turned out to be 48.5 µM.
